From PMC7744439 (European journal of medicinal chemistry, 2020)
Like-named read-outs stand apart in the source and are kept apart here.

Experiments:
HDAC1 = HDAC1 (Homo sapiens, UniProt Q13547); test: HDAC1 enzymatic inhibition; type: biochemical
HDAC6 [1] = biological target: T1, HDAC6 (Homo sapiens, UniProt Q9UBN7); test: HDAC6 enzymatic inhibition; type: biochemical
T1 sequence (Q9UBN7 1-1215): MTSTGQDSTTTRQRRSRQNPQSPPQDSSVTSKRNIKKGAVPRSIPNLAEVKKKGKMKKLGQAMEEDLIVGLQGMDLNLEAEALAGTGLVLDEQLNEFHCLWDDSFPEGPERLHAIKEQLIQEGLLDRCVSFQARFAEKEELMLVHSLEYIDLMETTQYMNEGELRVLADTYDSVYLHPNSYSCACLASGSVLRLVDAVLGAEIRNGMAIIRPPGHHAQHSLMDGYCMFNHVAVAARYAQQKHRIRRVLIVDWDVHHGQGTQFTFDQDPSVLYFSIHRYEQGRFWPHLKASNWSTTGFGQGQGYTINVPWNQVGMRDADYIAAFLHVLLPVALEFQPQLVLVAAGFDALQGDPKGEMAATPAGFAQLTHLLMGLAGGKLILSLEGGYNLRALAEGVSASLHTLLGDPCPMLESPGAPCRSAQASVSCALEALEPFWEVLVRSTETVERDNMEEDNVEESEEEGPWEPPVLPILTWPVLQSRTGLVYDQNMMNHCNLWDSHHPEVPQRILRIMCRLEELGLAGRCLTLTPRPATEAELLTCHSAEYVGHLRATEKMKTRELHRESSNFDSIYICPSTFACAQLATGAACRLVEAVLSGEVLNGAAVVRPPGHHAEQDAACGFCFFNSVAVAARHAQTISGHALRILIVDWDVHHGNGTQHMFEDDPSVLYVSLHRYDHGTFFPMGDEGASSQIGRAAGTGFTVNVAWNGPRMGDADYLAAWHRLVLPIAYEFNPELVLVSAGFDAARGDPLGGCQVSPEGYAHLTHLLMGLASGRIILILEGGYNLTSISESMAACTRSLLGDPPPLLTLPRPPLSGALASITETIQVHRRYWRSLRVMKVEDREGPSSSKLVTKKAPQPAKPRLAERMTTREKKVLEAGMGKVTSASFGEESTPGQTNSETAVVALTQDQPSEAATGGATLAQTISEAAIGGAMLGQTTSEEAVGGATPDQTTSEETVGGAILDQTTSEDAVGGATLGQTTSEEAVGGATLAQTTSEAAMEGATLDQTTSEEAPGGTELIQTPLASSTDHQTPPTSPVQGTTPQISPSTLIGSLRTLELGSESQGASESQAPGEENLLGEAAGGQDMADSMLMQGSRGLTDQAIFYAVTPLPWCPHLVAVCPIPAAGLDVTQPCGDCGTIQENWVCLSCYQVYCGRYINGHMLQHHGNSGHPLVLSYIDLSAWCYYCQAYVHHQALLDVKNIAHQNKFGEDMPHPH

HDAC2 = HDAC2 (Homo sapiens, UniProt Q92769); test: HDAC2 enzymatic inhibition; type: biochemical
Chain of HDAC2 (Q92769 whole entry, species assumed): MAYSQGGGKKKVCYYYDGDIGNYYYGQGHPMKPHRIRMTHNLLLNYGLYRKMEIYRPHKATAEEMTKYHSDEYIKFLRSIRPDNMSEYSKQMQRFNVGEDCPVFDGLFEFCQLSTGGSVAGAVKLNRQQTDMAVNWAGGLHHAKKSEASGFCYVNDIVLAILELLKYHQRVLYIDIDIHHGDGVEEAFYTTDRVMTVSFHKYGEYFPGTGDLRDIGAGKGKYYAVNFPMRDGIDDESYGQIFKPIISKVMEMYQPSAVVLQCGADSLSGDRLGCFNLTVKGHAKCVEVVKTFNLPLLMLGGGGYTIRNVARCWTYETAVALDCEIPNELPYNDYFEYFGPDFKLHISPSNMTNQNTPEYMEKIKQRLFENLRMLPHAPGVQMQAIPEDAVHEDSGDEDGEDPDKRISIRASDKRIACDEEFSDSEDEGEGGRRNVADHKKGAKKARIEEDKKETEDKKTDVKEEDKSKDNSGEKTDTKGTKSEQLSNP

primary cortical neurons [2] = conditions: cited from earlier work; for neuroprotection: at 10 μM
[3] = tested on: prostate cancer cells (PC-3 and LNCap); conditions: cited from earlier work
PC-3 tumors = conditions: cited from earlier work; for tumor growth: IP, 28 days, 0.5 mg/kg; for mortality or body-weight loss: during the treatment, 0.5 mg/kg IP
HDAC6 [4] = biological target: T1, HDAC6; conditions: read-out: HDAC6 IC50, cited from earlier work
[5] = tested on: Ac-H4 in spleen, brain and liver; conditions: 0.5 to 400 mg/kg, after 4 h treatment, dose-dependent; cited from earlier work
total HDACs = conditions: read-out: Total HDAC (IC50); cited from earlier work
[6] = mice, 400 mg/kg, IP, plasma; cited from earlier work
[7] = tested on: nonmalignant cells (267-B1 and RWPE-1); conditions: cited from earlier work
[8] = IP, cited from earlier work; for behavior of the mice: 0.5 to 400 mg/kg
Caco-2 cells = conditions: cited from earlier work; for permeability classification: moderately permeable = 2 × 10^−6 cm/s < Papp(A–B) < 20 × 10^−6 cm/s
[9] = tested on: monomorphic malignant human glioma cells (A172, U373MG, and T98G); conditions: cited from earlier work
dendritic spine density = conditions: 50 mg/kg, IP; cited from earlier work
hAPP 3 × Tg mice = conditions: 50 mg/kg, IP, four weeks, cited from earlier work
[10] = tested on: N2a cells overexpressing hAPP; conditions: 5 μM, 24 h; cited from earlier work
primary cortical neurons [11] = conditions: 5 μM, 24 h; cited from earlier work
HDAC8 = biological target: T2, HDAC8 (Homo sapiens, UniProt Q9BY41); conditions: read-out: HDAC8 IC50; cited from earlier work
T2 sequence (Q9BY41 1-377): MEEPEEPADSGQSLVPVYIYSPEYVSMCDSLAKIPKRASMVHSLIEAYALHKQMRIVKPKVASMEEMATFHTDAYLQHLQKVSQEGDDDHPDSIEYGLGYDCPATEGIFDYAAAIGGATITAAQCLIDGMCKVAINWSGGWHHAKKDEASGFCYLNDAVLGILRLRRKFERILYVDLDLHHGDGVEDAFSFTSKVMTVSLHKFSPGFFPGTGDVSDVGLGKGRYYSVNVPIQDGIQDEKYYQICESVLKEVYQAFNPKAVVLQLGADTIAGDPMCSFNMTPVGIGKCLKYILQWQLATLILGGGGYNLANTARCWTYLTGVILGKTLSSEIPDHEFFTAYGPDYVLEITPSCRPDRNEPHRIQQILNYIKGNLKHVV

Chain of HDAC1 (Q13547 whole entry, species assumed): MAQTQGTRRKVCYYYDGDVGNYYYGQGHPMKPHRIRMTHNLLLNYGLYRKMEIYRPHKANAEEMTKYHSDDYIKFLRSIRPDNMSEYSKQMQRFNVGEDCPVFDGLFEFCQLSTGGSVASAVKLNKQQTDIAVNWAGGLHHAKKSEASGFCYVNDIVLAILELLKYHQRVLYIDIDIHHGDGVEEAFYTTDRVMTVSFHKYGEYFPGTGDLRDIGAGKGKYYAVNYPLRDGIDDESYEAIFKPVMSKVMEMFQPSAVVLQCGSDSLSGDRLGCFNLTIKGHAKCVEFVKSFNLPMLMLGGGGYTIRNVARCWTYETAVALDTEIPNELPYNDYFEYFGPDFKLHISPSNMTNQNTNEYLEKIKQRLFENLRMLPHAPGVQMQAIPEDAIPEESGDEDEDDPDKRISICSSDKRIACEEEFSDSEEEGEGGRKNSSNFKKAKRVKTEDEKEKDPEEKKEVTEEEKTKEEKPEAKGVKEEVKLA

In the case of `O=C(CS)NCCCCCC(=O)Nc1ccccc1` [Compound 11], the IC50 (HDAC1) is reported as 3760 nM, the IC50 (HDAC6 [1]) is reported as 340 nM and the “SI, HDAC1/6 selectivity index” value (HDAC6 [1]; HDAC1/HDAC6, text prints -folds) is reported as 11.1. The IC50 (HDAC2) was over 30000 nM.
In the case of `Cc1onc(-c2ccccc2)c1C=CCCCCCNC(=O)C(C)S` (stereo not drawn) [Compound 45], the neuroprotection (primary cortical neurons [2]) is given as “neuroprotective effects”.
In the case of `CN(C)c1ccc(C(=O)NCCCCCNC(=O)CS)cc1` [Compound 20], the anti-proliferative effects [3] is listed as “low-micromolar levels of anti-proliferative effects”, the tumor growth (PC-3 tumors) is listed as “significant inhibition on the tumor growth” and the “mortality or body-weight loss” value (PC-3 tumors) is listed as “no mortality or body-weight loss”. For the same compound, the IC50 (HDAC6 [4]; Table 1) was 110 nM, the “Ac-H4 levels in the spleen” value [5] was “significantly increased” and the IC50 (total HDACs) was 200 nM. For the same compound, the CL [6] was 4.87 ± 0.2 L/h, the “inhibitory effects on nonmalignant cells” value [7] was “no apparent inhibitory effects” and the “behavior of the mice” value [8] was “remain normal”. For the same compound, the permeability classification (Caco-2 cells) was “moderately permeable”.
In the case of `O=C(CS)NCCCCCC(=O)Nc1cccc2cccnc12` [Compound 63], the anti-proliferative effects [3] is given as “low-micromolar levels of anti-proliferative effects”, the tumor growth (PC-3 tumors) is given as “significant inhibition on the tumor growth” and the “mortality or body-weight loss” value (PC-3 tumors) is given as “no mortality or body-weight loss”. For the same compound, the IC50 (HDAC6 [4]; Table 3) was 90 nM, the “Ac-H4 levels in the spleen” value [5] was “significantly increased” and the IC50 (total HDACs) was 40 nM. The “levels of Ac-H3” value ([9]; A172 and U373MG cells) was “without influence”, the “levels of Ac-Tub” value ([9]; A172 and U373MG cells) was “significantly enhanced” and the “cell migration and invasion” value ([9]; A172 cells) was “reduced cell migration and invasion”. The “phosphorylation of FAK/STAT3” value [9] was “suppress the phosphorylation of FAK/STAT3”, the “cytotoxicity in glioma cells” value ([9]; concentrations up to 50 μM) was “did not show cytotoxicity” and the CL [6] was 4.05 ± 0.15 L/h. For the same compound, the dendritic spine density (dendritic spine density) was “promotes dendritic spine density”, the “inhibitory effects on nonmalignant cells” value [7] was “no apparent inhibitory effects” and the “time to full recovery” value ([8]; 400 mg/kg) was at most 1 h. For the same compound, the “behavior of the mice” value [8] was “incapacitated 15 min after treating”, the “transporters responsible for the efflux” value (Caco-2 cells) was “P-glycoprotein (P-gp) and multidrug resistance-associated protein 1 (MRP1)” and the permeability classification (Caco-2 cells) was “moderately permeable”. The Aβ levels (hAPP 3 × Tg mice) was “decreased”, the “phosphorylated tau (Thr181) levels” value (hAPP 3 × Tg mice) was “decreased” and the “learning and memory deficits” value (hAPP 3 × Tg mice; aged mice (9-10-month-old)) was “alleviated the learning and memory deficits”. The “increase of cell surface APP” value [10] was “two-fold” and the “increase of cell surface APP” value (primary cortical neurons [11]) was “two-fold”.
With `O=C(CS)NCCCCCn1ccc2cc(Cl)c(Cl)cc21` [Compound 74] the IC50 (HDAC1) was over 30000 nM, the IC50 (HDAC6 [1]) was 2330 nM and the “SI, HDAC1/6 selectivity index” value (HDAC6 [1]) was over 12.8.
In the case of `Cc1onc(-c2ccccc2)c1C(=O)NCCCCCNC(=O)[C@H](C)S` [Compound 37], the “prevention of glutathione depletion” value (primary cortical neurons [2]) is given as “ability to prevent glutathione depletion”.
For `Cc1noc(-c2ccccc2)c1C#CCCCCCNC(=O)C(C)S` (stereo not drawn) [Compound 49], the neuroprotection (primary cortical neurons [2]) is given as “neuroprotective effects”.
For `Cc1noc(-c2cccc(F)c2)c1C#CCCCCCNC(=O)C(C)S` (stereo not drawn) [Compound 50], the neuroprotection (primary cortical neurons [2]) is listed as “neuroprotective effects”.
In the case of `Cc1onc(-c2ccccc2)c1COCCCCCNC(=O)[C@H](C)S` [Compound 41], the “prevention of glutathione depletion” value (primary cortical neurons [2]) is given as “ability to prevent glutathione depletion”.
For `Cc1onc(-c2ccccc2)c1C(=O)NCCCCCNC(=O)CS` [Compound 34], the neuroprotection (primary cortical neurons [2]) is given as “full neuroprotection”.
For `O=C(NO)c1ccccc1` [phenylhydroxamate, reference compound], the IC50 (HDAC8) is listed as 1900 nM and the IC50 (HDAC6 [4]) is listed as 115 nM.
